# Laboratory results as given in patent US8785457B2 (Cellzome Limited, priority 2009, dated 2014).
# Read-outs that look alike come from different tables or passages of the source.
# Columns and labels:
# PI3 Kgamma (PI3 Kg) = molecular target: T1, PI3 Kgamma (PI3 Kg) (Homo sapiens, UniProt P48736); assay: kinobeads assay, PI3Kgamma; type: binding
# T1 construct: endogenous in cells; host or cells: cell lysate
# Summary of the method: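 Cell lysate aliquots are incubated with compound over a concentration range and with an affinity matrix of immobilized phenylmorpholin-chromen ligand. Beads are then removed, bound proteins eluted, and each kinase is quantified by multiplexed immunodetection to derive IC50 values.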
# PI3K delta (PI3 Kd) = molecular target: T2, PI3K delta (PI3 Kd) (Homo sapiens, UniProt O00329); assay: kinobeads assay, PI3K delta; type: binding
# T2 construct: endogenous in cells; host or cells: Jurkat, clone E6-1 (ATCC TIB-152) cell lysate
# Summary of the method: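 IC50 values came from dose-response curves after test compound (1:3 series) competed with an immobilized phenylmorpholin-chromen affinity matrix for kinases in Jurkat lysate at 5 mg/mL protein. Eluted captured DNA-PK and PI3Kδ were measured by specific-antibody dot blot and infrared imaging. Buffer was Tris pH 7.4, NP40, MgCl2, NaCl, vanadate, DTT, NaF.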
# [1] = kinobeads assay, Table 6, read-out: Inhibition values (IC50) PI3Kg
# [2] = kinobeads assay, Table 4, read-out: Inhibition values (IC50) PI3Kd
# [3] = kinobeads assay, Table 6, read-out: Inhibition values (IC50) PI3Kd
# [4] = Further Kinobeads Data, read-out: PI3Kg
# [5] = Further Kinobeads Data, read-out: PI3Kd
# T2 sequence (O00329 whole entry): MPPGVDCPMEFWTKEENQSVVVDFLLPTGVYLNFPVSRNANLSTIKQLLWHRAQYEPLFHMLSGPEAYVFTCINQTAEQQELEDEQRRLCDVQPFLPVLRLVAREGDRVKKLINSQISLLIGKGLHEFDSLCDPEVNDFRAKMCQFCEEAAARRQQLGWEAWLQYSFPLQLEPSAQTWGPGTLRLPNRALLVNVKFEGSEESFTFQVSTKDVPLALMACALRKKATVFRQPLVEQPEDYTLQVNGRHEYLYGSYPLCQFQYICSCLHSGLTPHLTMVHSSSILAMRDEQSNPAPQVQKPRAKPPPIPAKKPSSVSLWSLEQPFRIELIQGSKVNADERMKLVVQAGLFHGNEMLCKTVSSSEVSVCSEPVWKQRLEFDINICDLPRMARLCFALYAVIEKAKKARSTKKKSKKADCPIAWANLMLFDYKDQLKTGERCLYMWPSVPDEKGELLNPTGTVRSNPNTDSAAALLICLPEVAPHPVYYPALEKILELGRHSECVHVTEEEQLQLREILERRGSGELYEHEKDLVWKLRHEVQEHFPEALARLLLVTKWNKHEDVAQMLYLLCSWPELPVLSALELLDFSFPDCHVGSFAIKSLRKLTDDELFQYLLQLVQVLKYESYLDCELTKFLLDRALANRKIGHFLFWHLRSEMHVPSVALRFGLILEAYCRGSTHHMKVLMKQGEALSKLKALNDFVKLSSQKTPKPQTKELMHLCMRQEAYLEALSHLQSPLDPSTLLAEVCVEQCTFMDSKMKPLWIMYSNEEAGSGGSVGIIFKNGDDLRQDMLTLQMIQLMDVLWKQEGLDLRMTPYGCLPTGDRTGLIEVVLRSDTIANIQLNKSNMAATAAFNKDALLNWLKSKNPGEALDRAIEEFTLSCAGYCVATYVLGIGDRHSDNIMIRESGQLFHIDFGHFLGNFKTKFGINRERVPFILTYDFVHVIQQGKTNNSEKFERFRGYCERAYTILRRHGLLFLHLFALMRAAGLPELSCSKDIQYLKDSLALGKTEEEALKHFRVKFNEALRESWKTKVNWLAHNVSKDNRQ
# T2 sequence (P27986 whole entry partner): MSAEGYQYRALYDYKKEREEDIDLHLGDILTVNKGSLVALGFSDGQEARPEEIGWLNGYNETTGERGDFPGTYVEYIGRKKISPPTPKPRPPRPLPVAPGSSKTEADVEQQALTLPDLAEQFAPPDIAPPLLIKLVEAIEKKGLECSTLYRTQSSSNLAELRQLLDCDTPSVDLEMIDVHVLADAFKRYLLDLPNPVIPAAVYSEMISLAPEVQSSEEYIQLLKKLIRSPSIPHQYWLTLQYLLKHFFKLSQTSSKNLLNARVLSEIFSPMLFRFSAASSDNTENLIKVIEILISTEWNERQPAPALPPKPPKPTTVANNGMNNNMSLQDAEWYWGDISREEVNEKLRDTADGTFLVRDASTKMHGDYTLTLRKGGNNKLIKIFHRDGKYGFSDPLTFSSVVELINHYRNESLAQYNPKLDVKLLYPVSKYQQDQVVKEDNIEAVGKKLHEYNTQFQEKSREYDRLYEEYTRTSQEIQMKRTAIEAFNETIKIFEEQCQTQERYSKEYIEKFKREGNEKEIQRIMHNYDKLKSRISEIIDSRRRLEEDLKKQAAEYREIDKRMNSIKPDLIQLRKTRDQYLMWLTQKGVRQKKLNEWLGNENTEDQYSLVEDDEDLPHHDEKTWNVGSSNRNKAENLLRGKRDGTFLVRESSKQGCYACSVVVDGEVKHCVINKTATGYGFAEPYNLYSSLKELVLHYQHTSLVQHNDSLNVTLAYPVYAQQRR
# T1 sequence (P48736 whole entry): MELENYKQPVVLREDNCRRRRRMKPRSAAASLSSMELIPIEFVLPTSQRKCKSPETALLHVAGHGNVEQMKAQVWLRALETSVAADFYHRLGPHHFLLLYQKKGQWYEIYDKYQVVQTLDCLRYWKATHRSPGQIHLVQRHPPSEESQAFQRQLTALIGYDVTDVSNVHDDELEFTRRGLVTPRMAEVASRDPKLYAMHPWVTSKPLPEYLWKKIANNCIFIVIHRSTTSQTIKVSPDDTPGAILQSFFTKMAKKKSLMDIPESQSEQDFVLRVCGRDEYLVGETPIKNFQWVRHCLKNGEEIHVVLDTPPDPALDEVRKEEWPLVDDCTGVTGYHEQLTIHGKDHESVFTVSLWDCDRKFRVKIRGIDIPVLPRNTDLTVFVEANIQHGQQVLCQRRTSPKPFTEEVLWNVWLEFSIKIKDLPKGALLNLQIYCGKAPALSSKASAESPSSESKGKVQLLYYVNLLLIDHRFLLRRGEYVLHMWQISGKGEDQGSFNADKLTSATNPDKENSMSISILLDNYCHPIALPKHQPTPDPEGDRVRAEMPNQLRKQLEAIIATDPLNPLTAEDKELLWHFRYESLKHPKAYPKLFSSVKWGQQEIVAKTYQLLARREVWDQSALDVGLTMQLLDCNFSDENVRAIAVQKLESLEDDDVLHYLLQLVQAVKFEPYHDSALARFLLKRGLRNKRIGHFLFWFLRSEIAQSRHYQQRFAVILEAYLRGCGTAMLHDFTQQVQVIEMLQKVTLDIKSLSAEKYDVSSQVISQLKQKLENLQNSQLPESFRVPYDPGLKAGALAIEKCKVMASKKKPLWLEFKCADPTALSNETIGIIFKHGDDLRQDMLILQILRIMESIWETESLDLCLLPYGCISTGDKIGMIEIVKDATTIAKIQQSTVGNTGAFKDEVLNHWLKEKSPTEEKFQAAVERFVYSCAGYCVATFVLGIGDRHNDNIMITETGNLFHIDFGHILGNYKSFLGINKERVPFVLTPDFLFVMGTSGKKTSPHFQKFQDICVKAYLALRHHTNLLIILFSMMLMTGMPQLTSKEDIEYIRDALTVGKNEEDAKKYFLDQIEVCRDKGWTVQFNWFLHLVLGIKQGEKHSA
Structure (SMILES),IC50 (PI3 Kgamma (PI3 Kg); [1]) [µM],IC50 (PI3K delta (PI3 Kd); [2]) [µM],IC50 (PI3K delta (PI3 Kd); [3]) [µM],IC50 (PI3 Kgamma (PI3 Kg); [4]) [µM],IC50 (PI3K delta (PI3 Kd); [5]) [µM]
"C[C@H]1COCCN1c1nc(-c2ccc(NC(=O)NC3CC3)cc2)nc2c1CN(CC(C)(C)C)C2 [Example 25, (S)-1-cyclopropyl-3-(4-(4-(3-methylmorpholino)-6-neopentyl-6,7-dihydro-5H-pyrrolo[3,4-d]pyrimidin-2-yl)phenyl)urea]",> 10,> 10,> 10,–,–
"CCOC(=O)N1Cc2nc(-c3ccc(NC(=O)NC4CC4)cc3)nc(N3CCOC[C@@H]3C)c2C1 [Example 34, (S)-ethyl 2-(4-(3-cyclopropylureido)phenyl)-4-(3-methylmorpholino)-5H-pyrrolo[3,4-d]pyrimidine-6(7H)-carboxylate]",> 10,> 10,> 10,–,–
"C[C@H]1COCCN1c1nc(-c2ccc(NC(=O)NC3CC3)cc2)nc2c1CCN(CC1CC1)C2 [Example 40, (S)-1-cyclopropyl-3-(4-(7-(cyclopropylmethyl)-4-(3-methylmorpholino)-5,6,7,8-tetrahydropyrido[3,4-d]pyrimidin-2-yl)phenyl)urea]",1 to 10,> 10,> 10,–,–
"C[C@H]1COCCN1c1nc(-c2ccc(NC(=O)NC3CC3)cc2)nc2c1CCN(CC(C)(C)C)C2 [Example 41, (S)-1-cyclopropyl-3-(4-(4-(3-methylmorpholino)-7-neopentyl-5,6,7,8-tetrahydropyrido[3,4-d]pyrimidin-2-yl)phenyl)urea]",> 10,> 10,> 10,–,–
"CC(C)CN1CCc2c(nc(-c3ccc(NC(=O)NC4CC4)cc3)nc2N2CCOC[C@@H]2C)C1 [Example 42, (S)-1-cyclopropyl-3-(4-(7-isobutyl-4-(3-methylmorpholino)-5,6,7,8-tetrahydropyrido[3,4-d]pyrimidin-2-yl)phenyl)urea]",> 10,> 10,> 10,–,–
"CC(C)N1CCc2c(nc(-c3ccc(NC(=O)NC4CC4)cc3)nc2N2CCOC[C@@H]2C)C1 [Example 43, (S)-1-cyclopropyl-3-(4-(7-isopropyl-4-(3-methylmorpholino)-5,6,7,8-tetrahydropyrido[3,4-d]pyrimidin-2-yl)phenyl)urea]",1 to 10,> 10,> 10,–,–
"C[C@H]1COCCN1c1nc(-c2ccc(NC(=O)NC3CC3)cc2)nc2c1CN(C(=O)C(C)(C)C)C2 [Example 45, (S)-1-cyclopropyl-3-(4-(4-(3-methylmorpholino)-6-pivaloyl-6,7-dihydro-5H-pyrrolo[3,4-d]pyrimidin-2-yl)phenyl)urea]",> 10,> 10,> 10,–,–
"CCNC(=O)Nc1cc(F)c(-c2nc3c(c(N4CCOC[C@@H]4C)n2)CN(C(=O)OCC)C3)cc1F [Example 141, (S)-ethyl 2-(4-(3-ethylureido)-2,5-difluorophenyl)-4-(3-methylmorpholino)-5H-pyrrolo[3,4-d]pyrimidine-6(7H)-carboxylate]",–,–,–,> 10,> 10
"COC(=O)N1Cc2nc(-c3ccc(NC(=O)NC4CC4)cc3F)nc(N3CCOC[C@@H]3C)c2C1 [Example 146, (S)-methyl 2-(4-(3-cyclopropylureido)-2-fluorophenyl)-4-(3-methylmorpholino)-5H-pyrrolo[3,4-d]pyrimidine-6(7H)-carboxylate]",–,–,–,> 10,> 10
"C[C@H]1COCCN1c1nc(-c2ccc(NC(=O)NC3CC3)cc2F)nc2c1CN(C)C2 [Example 147, (S)-1-cyclopropyl-3-(3-fluoro-4-(6-methyl-4-(3-methylmorpholino)-6,7-dihydro-5H-pyrrolo[3,4-d]pyrimidin-2-yl)phenyl)urea]",–,–,–,> 10,> 10
"CCNC(=O)Nc1ccc(-c2nc3c(c(N4CCOCC4)n2)CN(C(=O)OCC)C3)c(F)c1 [Example 151, Ethyl 2-(4-(3-ethylureido)-2-fluorophenyl)-4-morpholino-5H-pyrrolo[3,4-d]pyrimidine-6(7H)-carboxylate]",–,–,–,1 to 10,> 10
"CCNC(=O)Nc1ccc(-c2nc3c(c(N4CCOC[C@@H]4C)n2)CN(C(=O)OC(C)(C)C)C3)c(F)c1 [Example 153, (S)-tert-butyl 2-(4-(3-ethylureido)-2-fluorophenyl)-4-(3-methylmorpholino)-5H-pyrrolo[3,4-d]pyrimidine-6-(7H)-carboxylate]",–,–,–,> 10,> 10
"CCNC(=O)Nc1ccc(-c2nc3c(c(N4CCOCC4)n2)CN(C)C3)c(F)c1 [Example 154, 1-ethyl-3-(3-fluoro-4-(6-methyl-4-morpholino-6,7-dihydro-5H-pyrrolo[3,4-d]pyrimidin-2-yl)phenyl)urea]",–,–,–,> 10,> 10

# Second part, the molecule after the results:
IC50 (PI3 Kgamma (PI3 Kg); [1]) [µM],IC50 (PI3K delta (PI3 Kd); [2]) [µM],IC50 (PI3K delta (PI3 Kd); [3]) [µM],IC50 (PI3 Kgamma (PI3 Kg); [4]) [µM],IC50 (PI3K delta (PI3 Kd); [5]) [µM],Structure (SMILES)
> 10,> 10,> 10,–,–,"CCNC(=O)Nc1ccc(-c2nc3c(c(N4CCOC[C@@H]4C)n2)CN(C(=O)c2ccc(F)cc2)C3)cc1 [Example 19, (S)-1-ethyl-3-(4-(6-(4-fluorobenzoyl)-4-(3-methylmorpholino)-6,7-dihydro-5H-pyrrolo[3,4-d]pyrimidin-2-yl)phenyl)urea]"
> 10,1 to 10,1 to 10,–,–,"CCNC(=O)Nc1ccc(-c2nc3c(c(N4CCOC[C@@H]4C)n2)CN(C(=O)C(C)C)C3)cc1 [Example 21, (S)-1-ethyl-3-(4-(6-isobutyryl-4-(3-methylmorpholino)-6,7-dihydro-5H-pyrrolo[3,4-d]pyrimidin-2-yl)phenyl)urea]"
> 10,1 to 10,1 to 10,–,–,"CCNC(=O)Nc1ccc(-c2nc3c(c(N4CCOC[C@@H]4C)n2)CN(C(=O)C2CC2)C3)cc1 [Example 23, (S)-1-(4-(6-(cyclopropanecarbonyl)-4-(3-methylmorpholino)-6,7-dihydro-5H-pyrrolo[3,4-d]pyrimidin-2-yl)phenyl)-3-ethylurea]"
> 10,> 10,> 10,–,–,"CCNC(=O)Nc1ccc(-c2nc3c(c(N4CCOC[C@@H]4C)n2)CCN(C(=O)c2ccc(F)cc2)C3)cc1 [Example 24, (S)-1-ethyl-3-(4-(7-(4-fluorobenzoyl)-4-(3-methylmorpholino)-5,6,7,8-tetrahydropyrido[3,4-d]pyrimidin-2-yl)phenyl)urea]"
1 to 10,> 10,> 10,–,–,"CCNC(=O)Nc1ccc(-c2nc3c(c(N4CCOC[C@@H]4C)n2)CCN(CC)C3)cc1 [Example 27, (S)-1-ethyl-3-(4-(7-ethyl-4-(3-methylmorpholino)-5,6,7,8-tetrahydropyrido[3,4-d]pyrimidin-2-yl)phenyl)urea]"
> 10,> 10,> 10,–,–,"CCNC(=O)Nc1ccc(-c2nc3c(c(N4CCOC[C@@H]4C)n2)CN(CC2CC2)C3)cc1 [Example 28, (S)-1-(4-(6-(cyclopropylmethyl)-4-(3-methylmorpholino)-6,7-dihydro-5H-pyrrolo[3,4-d]pyrimidin-2-yl)phenyl)-3-ethylurea]"
> 10,> 10,> 10,–,–,"CCNC(=O)Nc1ccc(-c2nc3c(c(N4CCOC[C@@H]4C)n2)CN(Cc2ccc(F)cc2)C3)cc1 [Example 29, (S)-1-ethyl-3-(4-(6-(4-fluorobenzyl)-4-(3-methylmorpholino)-6,7-dihydro-5H-pyrrolo[3,4-d]pyrimidin-2-yl)phenyl)urea]"
> 10,> 10,> 10,–,–,"CCNC(=O)Nc1ccc(-c2nc3c(c(N4CCOC[C@@H]4C)n2)CCN(C)C3)cc1 [Example 35, (S)-1-ethyl-3-(4-(7-methyl-4-(3-methylmorpholino)-5,6,7,8-tetrahydropyrido[3,4-d]pyrimidin-2-yl)phenyl)urea]"
> 10,> 10,> 10,–,–,"CCNC(=O)Nc1ccc(-c2nc3c(c(N4CCOC[C@@H]4C)n2)CCN(CC2CC2)C3)cc1 [Example 37, (S)-1-(4-(7-(cyclopropylmethyl)-4-(3-methylmorpholino)-5,6,7,8-tetrahydropyrido[3,4-d]pyrimidin-2-yl)phenyl)-3-ethylurea]"
> 10,> 10,> 10,–,–,"C[C@H]1COCCN1c1nc(-c2ccc(NC(=O)Nc3ccc(F)cc3)cc2)nc2c1CN(C)C2 [Example 52, (S)-1-(4-fluorophenyl)-3-(4-(6-methyl-4-(3-methylmorpholino)-6,7-dihydro-5H-pyrrolo[3,4-d]pyrimidin-2-yl)phenyl)urea]"
> 10,> 10,> 10,–,–,"CCNC(=O)Nc1ccc(-c2nc3c(c(N4CCOC[C@@H]4C)n2)CCN(C(=O)C2CC2)C3)cc1 [Example 56, (S)-1-(4-(7-(cyclopropanecarbonyl)-4-(3-methylmorpholino)-5,6,7,8-tetrahydropyrido[3,4-d]pyrimidin-2-yl)phenyl)-3-ethylurea]"
> 10,> 10,> 10,–,–,"CCNC(=O)Nc1ccc(-c2nc3c(c(N4CCOC[C@@H]4C)n2)CCN(C(=O)C(C)C)C3)cc1 [Example 57, (S)-1-ethyl-3-(4-(7-isobutyryl-4-(3-methylmorpholino)-5,6,7,8-tetrahydropyrido[3,4-d]pyrimidin-2-yl)phenyl)urea]"
–,–,–,> 10,1 to 10,"CCNC(=O)Nc1ccc(-c2nc3c(c(N4CCOC[C@@H]4C)n2)CN(C(=O)OC)C3)c(F)c1 [Example 152, (S)-methyl 2-(4-(3-ethylureido)-2-fluorophenyl)-4-(3-methylmorpholino)-5H-pyrrolo[3,4-d]pyrimidine-6-(7H)-carboxylate]"
